Structures are written as SMILES. Where two headings read alike, the source gives them in different places. Where only a bound is given, the exact number is not on record here.

By Ki is commonly meant a measure of affinity in units of concentration, obtained from inhibition or displacement. The term Emax denotes the size of the effect at its maximum, as opposed to the concentration needed.

Data set [1] deals with T1, hMOR (Homo sapiens, UniProt P35372). Kind of data set: Radioligand binding assay (Eurofins Cerep), [3H]DAMGO displacement. Particulars: read-out: MOR Ki ± SEM.
T1 sequence (P35372 whole entry): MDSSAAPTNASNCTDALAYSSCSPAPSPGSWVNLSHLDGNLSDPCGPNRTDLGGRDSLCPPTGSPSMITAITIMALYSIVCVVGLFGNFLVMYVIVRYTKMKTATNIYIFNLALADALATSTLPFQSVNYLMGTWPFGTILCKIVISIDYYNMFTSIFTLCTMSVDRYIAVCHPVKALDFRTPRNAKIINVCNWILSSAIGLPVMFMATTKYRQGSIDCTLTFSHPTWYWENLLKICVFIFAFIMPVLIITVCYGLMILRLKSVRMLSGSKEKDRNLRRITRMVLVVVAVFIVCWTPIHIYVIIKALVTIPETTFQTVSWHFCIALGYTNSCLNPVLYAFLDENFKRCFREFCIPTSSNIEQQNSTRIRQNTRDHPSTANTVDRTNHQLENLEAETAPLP
The target in a further data set is hKOR (Homo sapiens, UniProt P41145). Put plainly: Radioligand binding assay (Eurofins Cerep), [3H]U69,593 displacement. Particulars: read-out: KOR Ki ± SEM.
Chain of hKOR (P41145 whole entry): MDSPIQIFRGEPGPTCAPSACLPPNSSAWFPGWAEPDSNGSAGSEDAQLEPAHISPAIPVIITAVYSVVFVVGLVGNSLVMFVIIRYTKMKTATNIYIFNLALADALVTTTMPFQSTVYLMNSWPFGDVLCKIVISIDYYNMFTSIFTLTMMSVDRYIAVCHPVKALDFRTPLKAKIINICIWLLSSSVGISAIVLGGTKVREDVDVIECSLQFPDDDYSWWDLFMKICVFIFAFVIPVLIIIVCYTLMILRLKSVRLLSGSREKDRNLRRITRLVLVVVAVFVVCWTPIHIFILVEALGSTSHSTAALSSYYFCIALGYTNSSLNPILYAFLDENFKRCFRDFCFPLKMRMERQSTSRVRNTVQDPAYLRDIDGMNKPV
The target of the next data set is hDOR (Homo sapiens, UniProt P41143). Put plainly: Radioligand binding assay (Eurofins Cerep), [3H]DADLE displacement. Particulars: read-out: DOR Ki ± SEM.
Chain of hDOR (P41143 whole entry): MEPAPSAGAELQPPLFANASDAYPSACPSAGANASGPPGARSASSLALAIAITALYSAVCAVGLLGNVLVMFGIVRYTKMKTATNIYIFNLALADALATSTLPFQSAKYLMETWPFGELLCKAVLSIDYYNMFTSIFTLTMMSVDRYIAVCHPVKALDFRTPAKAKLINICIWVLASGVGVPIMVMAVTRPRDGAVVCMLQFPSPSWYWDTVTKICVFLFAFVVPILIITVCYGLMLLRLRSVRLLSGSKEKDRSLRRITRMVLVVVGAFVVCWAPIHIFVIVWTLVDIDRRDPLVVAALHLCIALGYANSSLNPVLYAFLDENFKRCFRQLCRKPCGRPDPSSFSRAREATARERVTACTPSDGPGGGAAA
Data set [2] has as its target T1, hMOR. Put plainly: cell-based. The arrangement: expressed in transfected cells.
A further data set addresses T2, α2A adrenergic receptor (Homo sapiens, UniProt P08913).
T2 construct: Eurofins Cerep (contract screening)
T2 sequence (P08913 1-465): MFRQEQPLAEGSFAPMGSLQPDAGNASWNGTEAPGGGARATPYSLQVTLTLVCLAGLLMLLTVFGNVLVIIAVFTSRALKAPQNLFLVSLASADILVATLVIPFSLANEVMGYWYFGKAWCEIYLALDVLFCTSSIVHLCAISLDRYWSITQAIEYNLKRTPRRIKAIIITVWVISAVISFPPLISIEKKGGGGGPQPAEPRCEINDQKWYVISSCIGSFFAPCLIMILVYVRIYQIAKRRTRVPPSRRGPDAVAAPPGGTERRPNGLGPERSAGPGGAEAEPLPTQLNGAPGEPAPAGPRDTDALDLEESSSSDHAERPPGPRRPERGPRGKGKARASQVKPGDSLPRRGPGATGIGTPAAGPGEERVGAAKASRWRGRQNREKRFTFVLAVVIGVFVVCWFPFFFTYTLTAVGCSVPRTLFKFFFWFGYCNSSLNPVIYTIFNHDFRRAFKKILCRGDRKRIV
Put plainly: Radioligand binding assay (Eurofins Cerep), [3H]RX 821002 displacement. Particulars: read-out: Alpha2A Ki ± SEM.

The nature of data set [3]: Metabolic stability in rat liver microsomes. It counts as in vitro ADME. Particulars: for Whole liver clearance, CL int, H: in vitro intrinsic clearance in RLM scaled to whole organ (rat); for RLM stability: rat liver microsomes 1 mg/ml, substrate 1 μM, NADPH, 37° C. The protocol: In vitro metabolic stability of each compound was determined using rat liver microsomes in triplicate. Verapamil was used as a positive control to check the activity of the microsomes. The incubation mixtures consisted of rat liver microsomes (1 mg microsomal protein/ml), substrate (1 μM), and reduced NADPH (1 mM) in a total volume of 0.4 ml potassium phosphate buffer (50 mM, pH 7.4). Reactions were initiated with the addition of NADPH and kept in an incubator shaker at 37° C. Aliquots of 25 μl were withdrawn at 0, 5, 10, 15, 30, and 60 min and mixed with 125 μl of acetonitrile with formic acid (0.1% v/v) containing phenacetin (50 ng/ml; internal standard) for the termination of the reaction. The samples were then vortex mixed and filtered through a […] 96-well membrane filtration plate under centrifugation at speed of 2000×g for 5 min at 4° C. The filtrates were subjected to UPLC-mass spectrometry (MS/MS) analysis.
The intrinsic clearance of the compounds was calculated using a half-life employing the ‘substrate depletion’ approach. The apparent half-life was calculated from the pseudo-first-order rate constants obtained by linear regression of log (concentration) and time plots. The in vitro intrinsic clearance of IFN was estimated using the formula: […]
Where k is the slope of the line obtained by plotting the natural logarithmic of the percentage of parent remaining versus time and V is the volume of incubation.
The in vitro intrinsic clearance was scaled to whole-organ (hepatic) in vivo intrinsic CL (CLint,H) using the scaling factors available in the literature using equation (Mahmood I. Application of allometric principles for the prediction of pharmacokinetics in human and veterinary drug development. Advanced drug delivery reviews, 2007, 59(11), 1177-1192)
MPPGL represents the microsomal protein per gram of Sprague Dawley rat liver (45 mg/g) and liver weight per kg body weight was 40 g/kg.
For orientation: Liver microsomes are a subcellular fraction often used to study metabolism.

On to `CC[C@@H]1CN2CC[C@]3(Nc4cccc(OC)c4C3=O)[C@@H]2C[C@@H]1/C(=C\OC)C(=O)OC` [Mitragynine pseudoindoxyl, reference compound], for which the Ki on hMOR [1] (Table A1, data summary #1) came to 0.0013 µM; on hKOR (Table A1, data summary #1), 0.15 µM; at hDOR (Table A1, data summary #1), 0.00293 µM. For the same molecule, the “MOR Emax ± SEM (% DAMGO)” value on hMOR [2] (Table A1, data summary #1) was determined as 42.4 % DAMGO.
As for `C[C@@H](NC(=O)[C@@H](N)Cc1ccc(O)cc1)C(=O)NCC(=O)N(C)[C@@H](Cc1ccccc1)C(=O)NCCO` [DAMGO, reference compound], the Emax at hMOR [2] (CHO, read-out: MOR Emax ± SEM (%)) worked out at 106 ± 2%.
For `CC[C@@H]1CN2CCc3c([nH]c4cccc(OC)c34)[C@@H]2C[C@@H]1/C(=C\OC)C(=O)NC` [SUSM-25, (E)-2-((2S,3S,12bS)-3-ethyl-8-methoxy-1,2,3,4,6,7,12,12b-octahydroindolo[2,3-a]quinolizin-2-yl)-3-methoxy-N-methylacrylamide], the Ki on hMOR [1] (Table A1, data summary #1) is 4.02 ± 0.728 µM; at hMOR [1] (Table A4, data summary #2), 3.52 ± 0.763 µM; on hKOR (Table A1, data summary #1), greater than 10 µM; on hKOR (Table A4, data summary #2), greater than 10 µM; at hDOR (Table A1, data summary #1), greater than 10 µM; at hDOR (Table A4, data summary #2) it was greater than 10 µM. The inhibition constant (Ki) at α2A adrenergic receptor (Table A1, data summary #1) was determined as 7.04 ± 1.82 µM; on α2A adrenergic receptor (Table A4, data summary #2) it was 6.74 ± 1.91 µM. In addition, the “Whole liver clearance, CL int, H” value in data set [3] was found to be 0.534 L/h/kg. Also, in data set [3], the “RLM stability” value is greater than 60 min.
With `CCNC(=O)/C(=C/OC)[C@H]1C[C@H]2c3[nH]c4cccc(OC)c4c3CCN2C[C@H]1CC` [SUSM-32, (E)-N-ethyl-2-((2S,3S,12bS)-3-ethyl-8-methoxy-1,2,3,4,6,7,12,12b-octahydroindolo[2,3-a]quinolizin-2-yl)-3-methoxyacrylamide], the inhibition constant Ki at hMOR [1] (Table A1, data summary #1) is 4.22 ± 0.752 µM; on hMOR [1] (Table A4, data summary #2), 4.22 ± 0.752 µM; on hKOR (Table A1, data summary #1), greater than 10 µM; on hKOR (Table A4, data summary #2), greater than 10 µM; at hDOR (Table A1, data summary #1), greater than 10 µM; at hDOR (Table A4, data summary #2), greater than 10 µM. For the same molecule, the Ki at α2A adrenergic receptor (Table A1, data summary #1) was 4.29 ± 1.12 µM; at α2A adrenergic receptor (Table A4, data summary #2) it was 3.87 ± 0.984 µM. The “Whole liver clearance, CL int, H” value in data set [3] was found to be 0.684 L/h/kg. Also, the “RLM stability” value in data set [3] was greater than 60 min.
For `CC[C@@H]1CN2CCc3c([nH]c4cccc(OC)c34)[C@@H]2C[C@@H]1/C(=C\OC)C(=O)N(CC)CC` [SUSM-509, (E)-N,N-diethyl-2-((2S,3S,12bS)-3-ethyl-8-methoxy-1,2,3,4,6,7,12,12b-octahydroindolo[2,3-a]quinolizin-2-yl)-3-methoxyacrylamide], the Ki on hMOR [1] (Table A1, data summary #1) is 1.13 ± 0.0738 µM; on hMOR [1] (Table A4, data summary #2), 1.13 ± 0.0738 µM; on hKOR (Table A1, data summary #1), greater than 10 µM; on hKOR (Table A4, data summary #2), greater than 10 µM; at hDOR (Table A1, data summary #1) it was greater than 10 µM; on hDOR (Table A4, data summary #2) it was greater than 10 µM. Moreover, the Ki at α2A adrenergic receptor (Table A1, data summary #1) stood at 5.2 ± 0.621 µM; at α2A adrenergic receptor (Table A4, data summary #2), 2.73 ± 0.488 µM. In addition, in data set [3], the “RLM stability” value is less than 5 min.
`CC[C@@H]1CN2CCc3c([nH]c4cccc(OC)c34)[C@@H]2C[C@@H]1/C(=C\OC)C(=O)NC1CCCCC1` [SUSM-519, (E)-N-cyclohexyl-2-((2S,3S,12bS)-3-ethyl-8-methoxy-1,2,3,4,6,7,12,12b-octahydroindolo[2,3-a]quinolizin-2-yl)-3-methoxyacrylamide]: the Ki was 3.59 ± 0.663 µM at hMOR [1] (Table A1, data summary #1); 2.18 ± 0.603 µM at hMOR [1] (Table A4, data summary #2); 2.79 ± 0.64 µM on hKOR (Table A1, data summary #1); 2.79 ± 0.64 µM at hKOR (Table A4, data summary #2); greater than 10 µM on hDOR (Table A1, data summary #1); greater than 10 µM at hDOR (Table A4, data summary #2). Further, at α2A adrenergic receptor (Table A4, data summary #2), the Ki was determined as 0.933 ± 0.242 µM. In data set [3], the “Whole liver clearance, CL int, H” value turned out to be 2.3 L/h/kg. Moreover, the “RLM stability” value in data set [3] is given as 30 min.
On to `CC[C@@H]1CN2CCc3c([nH]c4cccc(OC)c34)[C@@H]2C[C@@H]1/C(=C\OC)C(=O)N1CCCC1` [SUSM-507, (E)-2-((2S,3S,12bS)-3-ethyl-8-methoxy-1,2,3,4,6,7,12,12b-octahydroindolo[2,3-a]quinolizin-2-yl)-3-methoxy-1-(pyrrolidin-1-yl)prop-2-en-1-one], for which the inhibition constant (Ki) at hMOR [1] (Table A1, data summary #1) was 0.655 ± 0.0766 µM; at hMOR [1] (Table A4, data summary #2), 0.655 ± 0.0766 µM; at hKOR (Table A1, data summary #1), greater than 10 µM; at hKOR (Table A4, data summary #2), greater than 10 µM; at hDOR (Table A1, data summary #1), greater than 10 µM; at hDOR (Table A4, data summary #2), 6.26 ± 3.17 µM. In addition, the inhibitory constant (Ki) on α2A adrenergic receptor (Table A1, data summary #1) worked out at 9.85 ± 1.57 µM; at α2A adrenergic receptor (Table A4, data summary #2), 4.99 ± 1.02 µM. Also, the “Whole liver clearance, CL int, H” value in data set [3] was determined as 50.03 L/h/kg. Further, the “RLM stability” value in data set [3] is listed as less than 5 min.
